For this experiment, the system named is beta-TC6 cells. In words: Insulin HTRF assay (relative activity Ar) in beta-TC6 cells. To be noted: Mus musculus, Beta-TC6, 4 h, insulin HTRF, supernatant of beta-TC6 cells, incubation with test compound at 37°C for 2, 3, 4h; read-out: Ar (relative activity). It is filed as cell-based, mouse. The text has this: For further screening of compounds derived from compounds described above for their ability to regulate insulin release an insulin HTRF® (Homogeneous Time-Resolved Fluorescence; Cisbio International, France) was used. This assay is based on two antibodies against insulin binding to different epitopes of insulin. One of these antibodies is coupled to Europium (Ab-Eu-Cryptate) and the other one to the fluorophore XL665 (Ab-XL665). If the insulin is secreted into the supernatant of cell culture, both antibodies can bind to insulin and come therefore into close proximity, which allows upon excitation that energy transfer between (FRET) the long-life fluorescent donor Europium (cryptate) and the acceptors XL665. FRET increases proportionally with insulin concentration.
The automated assay protocol is as follows: • On day 1, 15k beta-TC6 cells per well were seeded for 24 or 48 h in 50 µL complete medium. On day 2 or respective on day 3, the medium is removed and cells are washed with 60 µL 1xPBS and 20 µL induction buffer is added using BioTek washer. Subsequently, 10 µL Sunitininb (5 -µM f.c.) or the test compound in induction buffer; 0.5% f.c. DMSO (CyBi-well) is transferred to the cells. The cells are then incubated at 37°C for 2, 3, 4h.
First 10 µL supernatant is transferred from the cell plates in HTRF plates (CyBi-well). 10 µL of 0, 1, 2, and 4 ng/ml insulin standard controls in assay medium is used as a control. To each well 10 µL of combined 1:25 Ab-XL665 (Acc) and 1:20 Ab-Eu-Cryptate (WellMate) are added and incubated for 120 min at RT in the dark. Finally HTRF is measured on ViewLux ultra high throughput microplate imager (PerkinElmer).
The evaluation software DataFactoty derives relative activities Ar according to the following equation: Ar = (V-R(0%control))/(R(100%control) -R0%control)) × 100 [formula]
The activity of the compounds was classified according to their Ar (relative activity) into the following ranges: […]
A general note: TR-FRET usually uses a lanthanide donor and a delayed reading to cut background.

Consider `CC(C)Oc1ccc(Nc2cc3[nH]c(-c4cncn4C)cc3cn2)cc1` [Compound 109, N-(4-isopropoxyphenyl)-2-(3-methylimidazol-4-yl)-1H-pyrrolo[3,2-c]pyridin-6-amine], for which the Emax fell in the range of 50 to 100%.

Take `COc1ccc(-c2nc3cnc(Nc4ccc(NC(C)=O)cc4)cc3n2C)cc1OC` [Compound 717, N-[4-[[2-(3,4-dimethoxyphenyl)-1-methyl-imidazo[4,5-c]pyridin-6-yl]amino]phenyl]acetamide]: the Emax lay within 50 to 100%.

Turning to `COc1ccc(OC)c(CCNc2nc3cnc(-c4ccsc4)cc3n2C)c1` [Compound 592, N-[2-(2,5-dimethoxyphenyl)ethyl]-1-methyl-6-(3-thienyl)imidazo[4,5-c]pyridin-2-amine], the Emax lay within 50 to 100%.

`COc1ccc(Nc2nccc3c2cc(-c2ccccc2)n3C)cc1OC` [Compound 326, N-(3,4-dimethoxyphenyl)-1-methyl-2-phenyl-pyrrolo[3,2-c]pyridin-4-amine]: the Emax was 30 to 50%.

Take `CNc1nc2cnc(-c3cccs3)cc2n1-c1cccc(F)c1` [Compound 687, 1-(3-fluorophenyl)-N-methyl-6-(2-thienyl)imidazo[4,5-c]pyridin-2-amine]: the Emax lay within 50 to 100%.

As to `COc1ccccc1Nc1nc2cnc(-c3cccnc3)cc2n1C` [Compound 613, N-(2-methoxyphenyl)-1-methyl-6-(3-pyridyl)imidazo[4,5-c]pyridin-2-amine], the Emax fell in the range of 50 to 100%.

Take `CC(=O)Nc1ccc(Nc2cc3c(cn2)nc(-c2ccco2)n3C)cc1` [Compound 708, N-[4-[[2-(2-furyl)-1-methyl-imidazo[4,5-c]pyridin-6-yl]amino]phenyl]acetamide]: the Emax was > 100%.

As to `CSc1ccc(Nc2cc3c(cn2)cc(-c2cnn(C)c2)n3C)cc1` [Compound 153, 1-methyl-2-(1-methylpyrazol-4-yl)-N-(4-methylsulfanylphenyl)pyrrolo[3,2-c]pyridin-6-amine], the Emax lay within 30 to 50%.

`COc1cc(Nc2nccc3[nH]c(-c4ccc(O)cc4)nc23)cc(OC)c1OC` [Compound 364, 4-[4-(3,4,5-trimethoxyanilino)-1H-imidazo[4,5-c]pyridin-2-yl]phenol]: the Emax fell in the range of 50 to 100%.

Consider `Cn1cc(-c2cc3cnc(Nc4ccncc4)cc3n2C)cn1` [Compound 135, 1-methyl-2-(1-methylpyrazol-4-yl)-N-(4-pyridyl)pyrrolo[3,2-c]pyridin-6-amine], for which the Emax fell in the range of 50 to 100%.

For the molecule `CC(=O)Nc1cccc(Nc2cc3c(cn2)nc(-c2ccco2)n3C)c1` [Compound 712, N-[3-[[2-(2-furyl)-1-methyl-imidazo[4,5-c]pyridin-6-yl]amino]phenyl]acetamide], the Emax lay within 50 to 100%.

Turning to `Cc1cccc(CNc2nc3cnc(-c4ccc(S(C)(=O)=O)cc4)cc3n2C)c1` [Compound 806, 1-methyl-6-(4-methylsulfonylphenyl)-N-(m-tolylmethyl)imidazo[4,5-c]pyridin-2-amine], the Emax lay in the range of 30 to 50%.

For the molecule `c1cncc(Nc2nccc3[nH]c(-c4cccnc4)cc23)c1` [Compound 234, N,2-bis(3-pyridyl)-1H-pyrrolo[3,2-c]pyridin-4-amine], the Emax lay in the range of 50 to 100%.

Consider `CNc1nc2cnc(Nc3ccc(OC)cc3)cc2n1-c1cc(OC)c(OC)c(OC)c1` [Compound 490, N6-(4-methoxyphenyl)-N2-methyl-1-(3,4,5-trimethoxyphenyl)imidazo[4,5-c]pyridine-2,6-diamine], for which the Emax lay in the range of 50 to 100%.

With `COc1ccc(CNc2nc3cnc(Nc4ccc(NC(C)=O)cc4)cc3n2C)cc1OC` [Compound 600, N-[4-[[2-[(3,4-dimethoxyphenyl)methylamino]-1-methyl-imidazo[4,5-c]pyridin-6-yl]amino]phenyl]acetamide], the Emax lay in the range of 50 to 100%.

For `CN1CCN(c2ccc(Nc3nccc4c3cc(-c3cccc(F)c3)n4C)cc2)CC1` [Compound 209, 2-(3-fluorophenyl)-1-methyl-N-[4-(4-methylpiperazin-1-yl)phenyl]pyrrolo[3,2-c]pyridin-4-amine], the Emax was 50 to 100%.

`Oc1cccc(Nc2nccc3[nH]c(-c4ccc(F)c(F)c4)nc23)c1` [Compound 441, 3-[[2-(3,4-difluorophenyl)-1H-imidazo[4,5-c]pyridin-4-yl]amino]phenol]: the Emax was 30 to 50%.

Regarding `Cn1cc(-c2cc3cnc(Nc4ccc(C#N)cc4)cc3n2C)cn1` [Compound 142, 4-[[1-methyl-2-(1-methylpyrazol-4-yl)pyrrolo[3,2-c]pyridin-6-yl]amino]benzonitrile], the Emax fell in the range of 50 to 100%.

On to `COc1ccc(Nc2nccc3[nH]c(-c4ccc(C)cc4)nc23)cc1` [Compound 382, N-(4-methoxyphenyl)-2-(p-tolyl)-1H-imidazo[4,5-c]pyridin-4-amine], for which the Emax lay within 30 to 50%.

`c1ccc(-c2cc3c(Nc4cccnc4)nccc3[nH]2)cc1` [Compound 319, 2-phenyl-N-(3-pyridyl)-1H-pyrrolo[3,2-c]pyridin-4-amine]: the Emax was 50 to 100%.

Consider `CN(C)c1ccc(-c2cc3cnc(Nc4cccc(O)c4)cc3n2Cc2ccccc2)cc1` [Compound 60, 3-[[1-benzyl-2-(4-dimethylaminophenyl)pyrrolo[3,2-c]pyridin-6-yl]amino]phenol], for which the Emax was in the range of 0 to 30%.

Turning to `CNc1nc2cnc(Nc3ccc(OC)c(OC)c3)cc2n1-c1ccccc1` [Compound 506, N6-(3,4-dimethoxyphenyl)-N2-methyl-1-phenyl-imidazo[4,5-c]pyridine-2,6-diamine], the Emax lay in the range of 50 to 100%.

As to `COc1cc(Nc2nccc3[nH]c(-c4ccc(C)cc4)nc23)cc(OC)c1OC` [Compound 377, 2-(p-tolyl)-N-(3,4,5-trimethoxyphenyl)-1H-imidazo[4,5-c]pyridin-4-amine], the Emax lay in the range of 30 to 50%.

For `COc1cccc(-c2nc3c(Nc4cc(OC)c(OC)c(OC)c4)nccc3[nH]2)c1F` [Compound 467, 2-(2-fluoro-3-methoxy-phenyl)-N-(3,4,5-trimethoxyphenyl)-1H-imidazo[4,5-c]pyridin-4-amine], the Emax was > 100%.

For the molecule `CN1CCN(c2cc3c(cn2)cc(-c2cnn(C)c2)n3Cc2ccccc2)CC1` [Compound 154, 1-benzyl-6-(4-methylpiperazin-1-yl)-2-(1-methylpyrazol-4-yl)pyrrolo[3,2-c]pyridine], the Emax was in the range of 30 to 50%.

In the case of `CNc1nc2cnc(-c3ccc(O)c(OC)c3)cc2n1-c1cccc(F)c1` [Compound 888, 4-[1-(3-fluorophenyl)-2-(methylamino)imidazo[4,5-c]pyridin-6-yl]-2-methoxy-phenol], the Emax lay within 30 to 50%.

Regarding `CC(=O)Nc1ccc(Nc2cc3c(cn2)ncn3C)cc1` [Compound 726, N-[4-[(1-methylimidazo[4,5-c]pyridin-6-yl)amino]phenyl]acetamide], the Emax lay within 50 to 100%.

Consider `CN(C)c1ccc(-c2cc3c(Nc4ccncn4)nccc3n2C)cc1` [Compound 229, 2-(4-dimethylaminophenyl)-1-methyl-N-pyrimidin-4-yl-pyrrolo[3,2-c]pyridin-4-amine], for which the Emax was > 100%.

As to `CNc1nc2cnc(Nc3cccc(C(C)C)c3)cc2n1CCOC` [Compound 772, N6-(3-isopropylphenyl)-1-(2-methoxyethyl)-N2-methyl-imidazo[4,5-c]pyridine-2,6-diamine], the Emax lay within 0 to 30%.

On to `c1cc2[nH]c(-c3ccsc3)cc2c(Nc2ccc(N3CCOCC3)cc2)n1` [Compound 256, N-(4-morpholinophenyl)-2-(3-thienyl)-1H-pyrrolo[3,2-c]pyridin-4-amine], for which the Emax is 50 to 100%.

Take `COc1ccc(Nc2nccc3c2cc(-c2ccsc2)n3C)cc1OC` [Compound 274, N-(3,4-dimethoxyphenyl)-1-methyl-2-(3-thienyl)pyrrolo[3,2-c]pyridin-4-amine]: the Emax lay within 30 to 50%.

Take `COc1cccc(-c2nc3c(N4CCOCC4)nccc3[nH]2)c1F` [Compound 480, 4-[2-(2-fluoro-3-methoxy-phenyl)-1H-imidazo[4,5-c]pyridin-4-yl]morpholine]: the Emax was in the range of 30 to 50%.

For `COc1ccc(-c2nc3c(NC4CCC(O)CC4)nccc3[nH]2)cc1OC` (stereo not drawn) [Compound 348, 4-[[2-(3,4-dimethoxyphenyl)-1H-imidazo[4,5-c]pyridin-4-yl]amino]cyclohexanol], the Emax lay in the range of 30 to 50%.

Turning to `CNc1nc2cnc(-c3ccc(O)c(OC)c3)cc2n1Cc1ccc(OC)c(OC)c1` [Compound 879, 4-[1-[(3,4-dimethoxyphenyl)methyl]-2-(methylamino)imidazo[4,5-c]pyridin-6-yl]-2-methoxy-phenol], the Emax was in the range of 30 to 50%.

Regarding `COc1cccc(Nc2nccc3[nH]c(-c4cccc(OC)c4F)nc23)c1` [Compound 468, 2-(2-fluoro-3-methoxy-phenyl)-N-(3-methoxyphenyl)-1H-imidazo[4,5-c]pyridin-4-amine], the Emax fell in the range of 30 to 50%.

Take `CN(C)c1cccc(Nc2nccc3[nH]c(-c4ccccc4)nc23)c1` [Compound 331, N1,N1-dimethyl-N3-(2-phenyl-1H-imidazo[4,5-c]pyridin-4-yl)benzene-1,3-diamine]: the Emax was in the range of 50 to 100%.

Values taken from patent EP2818472A1, “Imidazo[4,5-c]pyridine and pyrrolo[3,2-c]pyridine compounds as G-protein-coupled receptor kinase 5 (GRK5) modulators” (Max-Planck-Gesellschaft zur Förderung der Wissenschaften …, priority 2013, dated 2014).
